Reference: ChEMBL document CHEMBL1152016, “Synthesis and -lactamase inhibition of anacardic acids and their analogues” (Bioorg Med Chem Lett, 1994)
In brackets after ≈: the same amount, converted by molar mass.

How the values were obtained:
Beta-lactamase TEM = Beta-lactamase TEM (Escherichia coli, UniProt P62593); assay: Concentration required for its inhibitory activity against Escherichia coli JT4(TEM1) class A beta-lactamase
Beta-lactamase [1] = target: T1, Beta-lactamase (Staphylococcus aureus, UniProt P00807); assay: Concentration required for its inhibitory activity against Staphylococcus aureus Russel class A beta-lactamase; No inhibition
Beta-lactamase pse-1 = target: T2, Beta-lactamase pse-1 (Escherichia coli, UniProt Q2V0Y6); assay: Concentration required for its inhibitory activity against Escherichia coli K12(PSE4) class A beta-lactamase
T2 sequence (Q2V0Y6 whole entry): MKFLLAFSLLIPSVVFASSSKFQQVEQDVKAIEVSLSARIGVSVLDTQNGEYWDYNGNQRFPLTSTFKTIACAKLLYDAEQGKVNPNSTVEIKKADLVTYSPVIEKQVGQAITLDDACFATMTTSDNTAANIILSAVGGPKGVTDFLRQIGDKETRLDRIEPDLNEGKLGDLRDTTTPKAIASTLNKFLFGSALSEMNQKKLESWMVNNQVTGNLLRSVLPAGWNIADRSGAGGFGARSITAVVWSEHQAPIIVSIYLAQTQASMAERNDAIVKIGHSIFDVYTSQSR

Beta-lactamase [2] = target: Beta-lactamase (Pseudomonas aeruginosa (strain ATCC 15692 / PAO1 / 1C / PRS 101 / LMG12228), UniProt P24735); assay: Concentration required for its inhibitory activity against Pseudomonas aeruginosa class C beta-lactamase
Beta-lactamase [3] = target: Beta-lactamase (Enterobacter cloacae, UniProt P05364); assay: Concentration required for its inhibitory activity against Enterobacter cloacae P99 class C beta-lactamase
Beta-lactamase OXA-1 [4] = target: T3, Beta-lactamase OXA-1 (Escherichia coli, UniProt P13661); assay: Concentration required for its inhibitory activity against Escherichia coli K12(OXA1) class D beta-lactamase
Beta-lactamase [5] = target: T4, Beta-lactamase (Proteus mirabilis, UniProt P30897); assay: Concentration required for its inhibitory activity against Proteus mirabilis C889 class A beta-lactamase
T4 sequence (P30897 whole entry): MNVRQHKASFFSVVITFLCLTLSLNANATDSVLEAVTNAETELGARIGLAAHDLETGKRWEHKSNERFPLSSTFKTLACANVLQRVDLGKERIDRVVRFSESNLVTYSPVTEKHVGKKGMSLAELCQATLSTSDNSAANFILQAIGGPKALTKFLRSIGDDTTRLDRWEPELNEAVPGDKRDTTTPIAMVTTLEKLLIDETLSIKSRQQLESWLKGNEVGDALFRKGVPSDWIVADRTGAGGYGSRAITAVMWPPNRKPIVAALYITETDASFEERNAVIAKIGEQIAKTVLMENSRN

Beta-lactamase [6] = target: T4, Beta-lactamase; assay: Concentration required for its inhibitory activity against Proteus mirabilis C889 class A beta-lactamase; No inhibition
Beta-lactamase [7] = target: T1, Beta-lactamase; assay: Concentration required for its inhibitory activity against Staphylococcus aureus Russel class A beta-lactamase
Beta-lactamase OXA-1 [8] = target: T3, Beta-lactamase OXA-1; assay: Concentration required for its inhibitory activity against Escherichia coli K12(OXA1) class D beta-lactamase; No inhibition

Sequence of Beta-lactamase TEM (P62593 whole entry): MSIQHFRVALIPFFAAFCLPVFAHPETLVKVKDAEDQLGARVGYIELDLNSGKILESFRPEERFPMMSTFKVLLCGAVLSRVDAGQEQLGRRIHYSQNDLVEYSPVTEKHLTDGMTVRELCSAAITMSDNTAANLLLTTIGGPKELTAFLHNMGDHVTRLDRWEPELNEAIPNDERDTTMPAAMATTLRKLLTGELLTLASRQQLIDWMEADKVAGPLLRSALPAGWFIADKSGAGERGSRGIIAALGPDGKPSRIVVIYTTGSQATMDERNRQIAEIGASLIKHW
T3 sequence (P13661 whole entry): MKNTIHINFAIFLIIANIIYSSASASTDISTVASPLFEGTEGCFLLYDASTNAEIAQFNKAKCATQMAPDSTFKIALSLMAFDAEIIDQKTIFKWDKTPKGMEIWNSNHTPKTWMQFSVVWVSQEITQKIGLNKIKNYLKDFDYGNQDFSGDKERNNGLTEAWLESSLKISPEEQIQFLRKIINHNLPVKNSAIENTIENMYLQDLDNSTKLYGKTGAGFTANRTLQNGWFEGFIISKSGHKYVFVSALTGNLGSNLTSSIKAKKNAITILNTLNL
Sequence of Beta-lactamase (Enterobacter cloacae, UniProt P05364) (P05364 whole entry): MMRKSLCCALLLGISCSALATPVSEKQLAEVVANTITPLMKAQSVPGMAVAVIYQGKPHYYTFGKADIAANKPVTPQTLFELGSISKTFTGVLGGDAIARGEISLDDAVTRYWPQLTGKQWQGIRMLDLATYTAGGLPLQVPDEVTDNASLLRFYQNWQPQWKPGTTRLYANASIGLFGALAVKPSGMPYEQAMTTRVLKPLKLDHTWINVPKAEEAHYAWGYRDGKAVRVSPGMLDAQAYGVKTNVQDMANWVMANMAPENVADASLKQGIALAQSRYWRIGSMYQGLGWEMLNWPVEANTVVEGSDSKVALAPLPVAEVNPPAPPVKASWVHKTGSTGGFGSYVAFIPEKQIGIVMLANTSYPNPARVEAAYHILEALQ
Sequence of Beta-lactamase (Pseudomonas aeruginosa (strain ATCC 15692 / PAO1 / 1C / PRS 101 / LMG12228), UniProt P24735) (P24735 whole entry): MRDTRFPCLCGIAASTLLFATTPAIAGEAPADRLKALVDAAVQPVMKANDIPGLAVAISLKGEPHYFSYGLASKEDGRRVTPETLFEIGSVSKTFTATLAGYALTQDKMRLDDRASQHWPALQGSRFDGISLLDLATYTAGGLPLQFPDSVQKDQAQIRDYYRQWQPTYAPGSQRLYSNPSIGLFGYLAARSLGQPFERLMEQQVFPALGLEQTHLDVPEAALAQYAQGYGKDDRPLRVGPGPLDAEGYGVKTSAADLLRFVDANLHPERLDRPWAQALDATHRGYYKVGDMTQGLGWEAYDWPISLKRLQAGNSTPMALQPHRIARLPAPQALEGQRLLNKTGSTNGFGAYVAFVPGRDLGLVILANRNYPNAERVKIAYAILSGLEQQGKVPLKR

Row | IC50 (Beta-lactamase OXA-1 [8]) | SMILES | IC50 (Beta-lactamase TEM) | IC50 (Beta-lactamase [1]) | IC50 (Beta-lactamase pse-1) | IC50 (Beta-lactamase [2]) | IC50 (Beta-lactamase [3]) | IC50 (Beta-lactamase OXA-1 [4]) | IC50 (Beta-lactamase [5]) | IC50 (Beta-lactamase [6]) | IC50 (Beta-lactamase [7])
1 | – | CCCCCCCCCCc1ccccc1C(=O)O | 18 µg/mL (≈ 68.6 µM) | Not Active | – | – | – | – | – | – | –
2 | – | CCCCCCCCCCCCCCCCCc1cccc(O)c1C(=O)O | 1.9 µg/mL (≈ 5.05 µM) | Not Active | 0.7 µg/mL (≈ 1.86 µM) | 9.1 µg/mL (≈ 24.2 µM) | 1 µg/mL (≈ 2.66 µM) | 29 µg/mL (≈ 77 µM) | 8.3 µg/mL (≈ 22 µM) | – | –
3 | – | CCCCCCCCCCCCCCCc1cccc(OC)c1C(=O)O | 0.8 µg/mL (≈ 2.21 µM) | Not Active | 0.6 µg/mL (≈ 1.65 µM) | 11 µg/mL (≈ 30.3 µM) | 2.5 µg/mL (≈ 6.9 µM) | > 33 µg/mL | 22 µg/mL (≈ 60.7 µM) | – | –
4 | – | CCCCCCCCCCc1cccc(O)c1O | – | – | – | – | 21 µg/mL (≈ 83.9 µM) | – | – | – | –
5 | – | CCCCCCCCCCc1cccc(O)c1 | 1.9 µg/mL (≈ 8.11 µM) | – | 4.1 µg/mL (≈ 17.5 µM) | – | 4.5 µg/mL (≈ 19.2 µM) | – | – | Not Active | Not Active
6 | Not Active | CCCCCCCCc1cccc(O)c1C(=O)O | – | Not Active | 16 µg/mL (≈ 63.9 µM) | – | – | – | 3.9 µg/mL (≈ 15.6 µM) | – | –
7 | – | CCC=CCC=CCC=CCCCCCCCc1cccc(O)c1C(=O)O | – | Not Active | 10 µg/mL (≈ 27 µM) | – | 17 µg/mL (≈ 45.9 µM) | – | – | – | –
8 | – | CC(C)CCCCCCCCCCCCCc1cccc(O)c1C(=O)O | 9.7 µg/mL (≈ 26.8 µM) | Not Active | – | 16 µg/mL (≈ 44.1 µM) | 9 µg/mL (≈ 24.8 µM) | – | – | – | –
9 | – | CCC(C)CCCCCCCCCCCCc1cccc(O)c1C(=O)O (stereo not given) | 10 µg/mL (≈ 27.6 µM) | – | – | 36 µg/mL (≈ 99.3 µM) | 31 µg/mL (≈ 85.5 µM) | – | – | – | –
10 | – | CCCCCCCCCCCCCCCc1cccc(O)c1 | – | – | 20 µg/mL (≈ 65.7 µM) | – | 7.2 µg/mL (≈ 23.6 µM) | – | – | Not Active | –
11 | – | CCCCCCCCCCc1cccc(O)c1C(=O)O | 12 µg/mL (≈ 43.1 µM) | Not Active | – | – | – | – | – | – | –
12 | – | CCCCCCCCCCCCCCCc1cccc(O)c1O | – | – | – | – | 29 µg/mL (≈ 90.5 µM) | – | – | – | –
13 | – | C=CC/C=C\C/C=C\CCCCCCCc1cccc(O)c1C(=O)O [ANACARDIC ACID] | 0.8 µg/mL (≈ 2.34 µM) | Not Active | 1.1 µg/mL (≈ 3.21 µM) | 7.2 µg/mL (≈ 21 µM) | 1.4 µg/mL (≈ 4.09 µM) | 25 µg/mL (≈ 73 µM) | 31 µg/mL (≈ 90.5 µM) | – | –
14 | – | O=C(O)[C@H]1/C(=C/CO)O[C@@H]2CC(=O)N21 [CLAVULANIC ACID] | – | – | 0.015 µg/mL (≈ 0.0753 µM) | – | – | – | – | – | –
